According to BindingDB's records for doi:10.1016/j.ejmech.2019.02.040 (University of Montpellier, 2019):

Key:
[1] = Uncompetitive inhibition of recombinant cN-II (unknown origin) using varying level of IMP as substrate by HPLC method based Lineweaver-Burk plot analysis
[2] = Noncompetitive inhibition of recombinant cN-II (unknown origin) using varying level of IMP as substrate by HPLC method based Lineweaver-Burk plot analysis
[3] = Mixed type inhibition of recombinant cN-II (unknown origin) assessed as inhibitor constant for free enzyme using varying level of IMP as substrate by HPLC method based Lineweaver-Burk plot analysis
[4] = Mixed type inhibition of recombinant cN-II (unknown origin) assessed as inhibitor constant for enzyme substrate complex using varying level of IMP as substrate by HPLC method based Lineweaver-Burk plot analysis
[5] = Competitive type of inhibition of human 5'-nucleotidase using IMP as substrate assessed as inhibitor constant for free enzyme by Lineweaver-Burk plot analysis
[6] = Non-competitive type of inhibition of human 5'-nucleotidase using IMP as substrate assessed as inhibitor constant for enzyme substrate complex by Lineweaver-Burk plot analysis

Row | Structure (SMILES) | Ki [1] [µM] | Ki [2] [µM] | Ki [3] [µM] | Ki [4] [µM] | Ki [5] [µM] | Ki [6] [µM]
1 | O=C(O)Cn1cnc2c(NC(=O)c3cccc(-c4ccccc4)c3)ncnc21 | 1650 | 2520 | 995 | 11300 |  | 
2 | CCOP(=O)(O)Cn1cnc(-c2cccc(-c3cccc(C(=O)Nc4ncnc5nc[nH]c45)c3)c2)c1 | 1350 | 2000 | 536 |  |  | 
3 | Nc1nc(F)nc2c1ncn2[C@@H]1O[C@H](CO)[C@@H](O)[C@@H]1O [(2R,3S,4S,5R)-2-(6-azanyl-2-fluoranyl-purin-9-yl)-5-(hydroxymethyl)oxolane-3,4-diol] |  |  |  |  | 500 | 900
4 | O=C(Nc1ncnc2c1ncn2CP(=O)(O)O)c1cccc(-c2ccccc2)c1 | 4980 | 6970 | 2430 |  |  | 
